Laboratory results as given in article PMC6225322, “Development of Kinase Inhibitors via Metal-Catalyzed C–H Arylation of 8-Alkyl-thiazolo[5,4-f]-quinazolin-9-ones Designed by Fragment-Growing Studies” (Molecules : A Journal of Synthetic Chemistry and Natural …, 2018).

Tests used:
DYRK1A = DYRK1A (Homo sapiens, UniProt Q13627); test: DYRK1A in vitro kinase assay (Woodtide); type: biochemical
Description: (§1) Products of series 2a–j, 3a–c, 4a–f, 9a–i, and 10 were evaluated in five different in vitro kinase assays: CDK5/p25, CK1δ/ε (casein kinase 1), GSK-3α/β, DYRK1A (dual-specificity, tyrosine phosphorylation regulated kinase), and CLK1 [37, 38, 39].
(§2) Controls were performed with appropriate dilutions of dimethyl sulfoxide (DMSO).

GSK-3α/β = GSK-3α/β in vitro kinase assay (GS-1 peptide); type: biochemical, porcine; settings: Table 4; ATP 15 μM, triplicate; <50% inhibition at 10 μM = IC50 >10 μM
Description: as §1, §2
GSK-3α/β (porcine brain, native) was assayed, in buffer A, with 0.5 mg BSA/mL + 1 mM DTT, using GS-1 ([…]pEDEEE) (pS stands for phosphorylated serine), a GSK-3 specific substrate, in the presence of 15 μmol/L [γ-^33P] ATP (3000 Ci/mmol; 10 mCi/mL) in a final volume of 30 μL. After 30 min incubation at 30 °C, the reaction was stopped by harvesting onto P81 phosphocellulose […] (Whatman, Dutscher SAS, Brumath, France) using a FilterMate harvester (PerkinElmer, Courtaboeuf, France), and were washed in 1% phosphoric acid. Scintillation fluid was added, and the radioactivity measured in a Packard counter.

CLK1 = CLK1 (Homo sapiens, UniProt P49759); test: CLK1 in vitro kinase assay (RS peptide); type: biochemical
CDK5/p25 = molecular target: T1, CDK5/p25 (Homo sapiens, UniProt Q00535); test: CDK5/p25 in vitro kinase assay (33P-ATP, histone H1); type: biochemical
T1 construct: made in house

CK1δ/ε = CK1δ/ε in vitro kinase assay (CKS peptide); type: biochemical, porcine; settings: Table 4; ATP 15 μM, triplicate; <50% inhibition at 10 μM = IC50 >10 μM
Description: as §1, §2
CK1δ/ε (porcine brain, native) was assayed as described for CDK1, but in buffer B, and using 25 μM CKS peptide ([…]pSAYSITA), a CK1-specific substrate.

T1 sequence (Q00535 whole entry): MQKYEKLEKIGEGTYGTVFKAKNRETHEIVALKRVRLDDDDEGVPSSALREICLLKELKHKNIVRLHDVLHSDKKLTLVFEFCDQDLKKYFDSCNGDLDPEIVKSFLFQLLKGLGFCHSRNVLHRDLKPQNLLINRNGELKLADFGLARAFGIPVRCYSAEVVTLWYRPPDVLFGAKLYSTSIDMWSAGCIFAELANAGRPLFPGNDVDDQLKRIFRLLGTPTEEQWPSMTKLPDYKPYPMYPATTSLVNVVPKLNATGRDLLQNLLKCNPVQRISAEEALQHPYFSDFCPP
T1 sequence (Q15078 99-307 partner limits assumed): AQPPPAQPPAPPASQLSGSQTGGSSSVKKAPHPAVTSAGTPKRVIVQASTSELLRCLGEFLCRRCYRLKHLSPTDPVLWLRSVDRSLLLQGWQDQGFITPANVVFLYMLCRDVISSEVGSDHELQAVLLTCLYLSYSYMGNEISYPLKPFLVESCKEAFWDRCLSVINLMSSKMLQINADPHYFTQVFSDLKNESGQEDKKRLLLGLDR
Chain of CLK1 (P49759 whole entry): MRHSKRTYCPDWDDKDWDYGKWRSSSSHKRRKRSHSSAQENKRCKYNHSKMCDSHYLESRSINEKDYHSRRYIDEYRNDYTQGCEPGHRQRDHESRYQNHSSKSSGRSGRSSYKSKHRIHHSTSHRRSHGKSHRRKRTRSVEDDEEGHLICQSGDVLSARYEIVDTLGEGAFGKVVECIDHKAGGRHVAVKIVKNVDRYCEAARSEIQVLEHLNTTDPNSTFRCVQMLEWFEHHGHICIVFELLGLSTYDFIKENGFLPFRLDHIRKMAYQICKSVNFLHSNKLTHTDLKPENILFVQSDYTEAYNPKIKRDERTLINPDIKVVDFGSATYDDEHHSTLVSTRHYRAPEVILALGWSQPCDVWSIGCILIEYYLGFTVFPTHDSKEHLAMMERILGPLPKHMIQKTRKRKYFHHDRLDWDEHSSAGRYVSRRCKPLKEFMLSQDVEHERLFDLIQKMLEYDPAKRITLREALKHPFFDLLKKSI

Row | IC50 (DYRK1A) [µM] | IC50 (GSK-3α/β) [µM] | IC50 (CLK1) [µM] | IC50 (CDK5/p25) [µM] | IC50 (CK1δ/ε) [µM] | DYRK inhibitory activity (in words) (DYRK1A; SAR discussion) | SMILES
1 | > 10 | > 10 | > 10 |  | > 10 |  | Cn1cnc2ccc3nc(-c4cccnc4)sc3c2c1=O [4a, 8-Methyl-2-(pyridin-3-yl)thiazolo[5,4-f]quinazolin-9(8H)-one]
2 | > 10 | > 10 | > 10 |  | > 10 |  | CC(C)n1cnc2ccc3nc(-c4cccnc4)sc3c2c1=O [4b, 8-Isopropyl-2-(pyridin-3-yl)thiazolo[5,4-f]quinazolin-9(8H)-one]
3 | 0.011 | 0.068 | 0.018 |  | 6 |  | O=c1c2c(ccc3nc(-c4cccnc4)sc32)ncn1C1CC1 [4c, 8-Cyclopropyl-2-(pyridin-3-yl)thiazolo[5,4-f]quinazolin-9(8H)-one]
4 | > 10 | > 10 | > 10 |  | > 10 |  | O=c1c2c(ccc3nc(-c4cccnc4)sc32)ncn1C1CCC1 [4d, 8-Cyclobutyl-2-(pyridin-3-yl)thiazolo[5,4-f]quinazolin-9(8H)-one]
5 | > 10 | > 10 | > 10 |  | > 10 |  | O=c1c2c(ccc3nc(-c4cccnc4)sc32)ncn1C1CCCC1 [4e, 8-Cyclopentyl-2-(pyridin-3-yl)thiazolo[5,4-f]quinazolin-9(8H)-one]
6 | > 10 | > 10 | > 10 |  | > 10 |  | O=c1c2c(ccc3nc(-c4cccnc4)sc32)ncn1C1CCCCC1 [4f, 8-Cyclohexyl-2-(pyridin-3-yl)thiazolo[5,4-f]quinazolin-9(8H)-one]

Second part, the compound before the results:

Row | SMILES | IC50 (DYRK1A) [µM] | IC50 (GSK-3α/β) [µM] | IC50 (CLK1) [µM] | IC50 (CDK5/p25) [µM] | IC50 (CK1δ/ε) [µM] | DYRK inhibitory activity (in words) (DYRK1A; SAR discussion)
7 | O=c1c2c(ccc3nc(-c4cccnc4)sc32)ncn1Cc1ccccc1 [3a] | 0.012 | 3.7 | 2 | > 10 | > 10 | 
8 | O=c1c2c(ccc3nc(-c4cnccn4)sc32)ncn1Cc1ccccc1 [3b] | 0.133 | 6 | 3.33 | > 10 | > 10 | 
9 | COc1ccc2c(c1)[nH]c1c(C)nccc12 [Harmine, reference compound] |  | > 10 |  |  | 1.5 | 
10 | COc1ncccc1-c1nc2ccc3ncn(C4CC4)c(=O)c3c2s1 [compound 10] | > 10 | ≥ 10 | > 10 | > 10 | > 10 | inactive
